This is an account of results in patent publication US8648103B2, “Nitrogen-containing aromatic heterocyclyl compound” (Daiichi Sankyo Company, Limited, priority 2008, dated 2014).

The structures appear in SMILES notation. pIC50: −log10 of the molar value.

The test system of this assay is Human subcutaneous adipocytes. Briefly: Adipocyte lipolysis assay (suppression of isoproterenol-stimulated fatty acid release). In kind it is cell-based. The note with it: Homo sapiens, Adipocyte; test compound concentration giving 50% fatty acid concentration reduction percentage in culture supernatant; 1 μM isoproterenol, 5 hours incubation; reduction by 100 μM nicotinic acid set at 100%. An excerpt: The suppressive or promoting activity of a test compound on the lipolysis of neutral fat can be assayed according to an adipocyte lipolysis assay as a cell line assay. If a beta adrenoceptor is stimulated with isoproterenol or the like in adipocytes, lipolysis action in which neutral fat accumulated in the cells is decomposed into fatty acid and glycerol can be promoted, and as a result, the amount of such fatty acid or glycerol released out of the cells can be increased. When a test compound that suppresses lipolysis is added to adipocytes, lipolysis-promoting action by isoproterenol stimulation is reduced, and the concentration of fatty acid or glycerol in a medium is decreased. Accordingly, the suppressive activity of a test compound on lipolysis can be assayed by measuring the reduction percentage of the fatty acid concentration or glycerol concentration in a culture supernatant. Likewise, the promoting activity of a test compound on lipolysis can be assayed by measuring the increase percentage of the fatty acid concentration or glycerol concentration in a medium.
• (1) Human subcutaneous adipocytes disseminated onto a 96 well (Dainippon Sumitomo Pharma Co., Ltd.: F-SA-1096) • (2) Adipocyte Maintenance Medium (Dainippon Sumitomo Pharma Co., Ltd.: AM 1) • (3) Lipolysis assay buffer [137 mM NaCl, 5 mM KCl, 4.2 mM NaHCO3, 1.3 mM CaCl2, 0.5 mM KH2PO4, 0.5 mM MgCl2, 0.5 mM MgSO4, 5 mM Glucose, 20 mM Hepes (pH 7.4), 1% BSA, 1 μM Isoproterenol] • (4) NEFA-C Test Wako (Wako Pure Chemical Industries, Ltd.) Preparation of Screening Materials
In this operation, the actual concentration of the test compound in the buffer was 1/1000 of the above-described concentration.
The above-described subcutaneous adipocytes were cultured in 200 μL of an Adipocyte Maintenance Medium in each well for 7 days. During this culturing operation, the medium was exchanged with a fresh one every 3 days. The medium was exchanged by discarding 100 μL of the medium in each well and then adding 100 μL of a fresh Adipocyte Maintenance Medium to the well. Thereafter, the adipocytes were washed with a Lipolysis assay buffer. Subsequently, 50 μL of a Lipolysis assay buffer that contained the above-described test compound was added to each well, and it was then incubated for 5 hours. In order to obtain the measurement value of the test compound in each concentration, 5 wells on a 96-well plate were used with respect to each concentration. As a positive control of a compound having lipolysis suppressive activity, nicotinic acid was used with reference to a previous report [Green A et. al., J. Biol. Chem., 1992, 267(5), 3223-9].
40 μL of a culture supernatant was extracted from each well, and the fatty acid concentration in the supernatant was then measured. Such fatty acid concentration was measured as follows, using the above-described NEFA-C Test Wako. 80 μL of liquid A included in the kit was added to 40 μL of the culture supernatant extracted from each well, and the obtained mixture was then incubated at 37° C. for 10 minutes. Thereafter, 160 μL of liquid B was added, and the obtained mixture was further incubated at 37° C. for 10 minutes. Thereafter, the absorbance at a wavelength of 550 nm was measured. At the same time, a standard fatty acid solution included in the kit was diluted to prepare a dilution series having a volume of 40 μL. According to the same operations as described above, liquid A and liquid B were added, and the absorbance was then measured. In accordance with instructions included with the kit, a calibration curve was prepared. Based on the thus prepared calibration curve, the fatty acid concentration in the culture supernatant was calculated. The reduction percentage of the fatty acid concentration was calculated with the following formula, setting the reduction percentage obtained by addition of 100 μM (final concentration) of nicotinic acid at 100%. […]
The term pIC50 denotes the negative decadic logarithm of the IC50, by convention in mol/L. A lower pIC50 goes with a large IC50. In turn, `CCn1cc(NC(=O)CCc2onc(-c3ccc(O)cc3)c2Cl)c(C(=O)O)c1` [Example 33, 4-{3-[4-Chloro-(4-hydroxyphenyl)isoxazol-5-yl]propanoyl}amino-1-ethylpyrrole-3-carboxylic acid] showed a pIC50 of 8.15. As for `CCn1cc(NC(=O)CCc2noc(-c3ccc(O)cc3)c2Cl)c(C(=O)O)c1` [Example 34, 4-{3-[5-(4-Hydroxyphenyl)-4-chloroisoxazol-3-yl]propanoyl}amino-1-ethylpyrrole-3-carboxylic acid], the figure is 7.70. With `CCc1c(-c2ccc(O)cc2)noc1CCC(=O)Nc1cn(CC)cc1C(=O)O` [Example 35, 4-{3-[4-Ethyl-(4-hydroxyphenyl)isoxazol-5-yl]propanoyl}amino-1-ethylpyrrole-3-carboxylic acid], the pIC50 was 8.10.

The compound `CCn1cc(NC(=O)C(F)Cc2sc(-c3ccc(O)cc3)nc2Cl)c(C(=O)O)c1` (stereo not drawn) [Example 37, 4-{3-[4-Chloro-2-(4-hydroxyphenyl)thiazol-5-yl]-2-fluoropropanoyl}amino-1-ethylpyrrole-3-carboxylic acid] gave a pIC50 of 7.89. As for `CCn1cc(NC(=O)CCc2onc(-c3ccc(O)cc3)c2C)c(C(=O)O)c1` [Example 38, 4-{3-[(4-Hydroxyphenyl)-4-methylisoxazol-5-yl]propanoyl}amino-1-ethylpyrrole-3-carboxylic acid], the figure is 8.40.

`CCn1cc(NC(=O)C(F)(F)Cc2cnc(-c3ccc(O)cc3)s2)c(C(=O)O)c1` [Example 39, 4-{3-[2-(4-Hydroxyphenyl)thiazol-5-yl]-2,2-difluoropropanoyl}amino-1-ethylpyrrole-3-carboxylic acid] showed a pIC50 of 7.40. With `CCn1cc(NC(=O)CCc2onc(-c3ccc(O)cc3F)c2Cl)c(C(=O)O)c1` [Example 43, 4-{3-[4-Chloro-3-(4-hydroxy-2-fluorophenyl)isoxazol-5-yl]propanoyl}amino-1-ethylpyrrole-3-carboxylic acid], the negative-log IC50 (pIC50) was 8.15. The compound `CCn1cc(NC(=O)CCc2cc(-c3ccc(O)cc3)no2)c(C(=O)O)c1` [Example 44, 4-{3-[3-(4-Hydroxyphenyl)isoxazol-5-yl]propanoyl}amino-1-ethylpyrrole-3-carboxylic acid] had a pIC50 of 8.10. `CCc1c(-c2ccc(O)cc2F)noc1CCC(=O)Nc1cn(CC)cc1C(=O)O` [Example 45, 4-{3-[4-Ethyl-3-(4-hydroxy-2-fluorophenyl)isoxazol-5-yl]propanoyl}amino-1-ethylpyrrole-3-carboxylic acid] showed a pIC50 of 8.05. As for `CCCCn1cc(NC(=O)CCc2cc(-c3ccc(O)cc3)no2)c(C(=O)O)c1` [Example 47, 4-{3-[3-(4-Hydroxyphenyl)isoxazol-5-yl]propanoyl}amino-1-butylpyrrole-3-carboxylic acid], the figure is 8.10; as for `CC(C)n1cc(NC(=O)CCc2nc(-c3ccc(O)cn3)no2)c(C(=O)O)c1` [Example 48, 4-{3-[3-(5-Hydroxypyridin-2-yl)-1,2,4-oxadiazol-5-yl]propanoyl}amino-1-isopropylpyrrole-3-carboxylic acid], 6.00. `O=C(CCc1nc(-c2ccc(O)cc2)no1)Nc1cn(Cc2ccccc2)cc1C(=O)O` [Example 49, 4-{3-[3-(4-Hydroxyphenyl)-1,2,4-oxadiazol-5-yl]propanoyl}amino-1-benzylpyrrole-3-carboxylic acid] showed a pIC50 of 6.87.

In the case of `CCCCn1cc(NC(=O)CCc2nc(-c3ccc(O)cc3)no2)c(C(=O)O)c1C` [Example 50, 4-{3-[3-(4-Hydroxyphenyl)-1,2,4-oxadiazol-5-yl]propanoyl}amino-1-butyl-2-methylpyrrole-3-carboxylic acid], the pIC50 is 6.08. The same measure for `CCCCn1cc(C(=O)O)c(NC(=O)CCc2nc(-c3ccc(O)cc3)no2)c1C#N` [Example 51, 4-{3-[3-(4-Hydroxyphenyl)-1,2,4-oxadiazol-5-yl]propanoyl}amino-5-cyano-1-butylpyrrole-3-carboxylic acid]: 6.58; for `CCCCn1cc(NC(=O)CCc2nc(-c3ccc(O)cc3)no2)c(C(=O)O)c1Cl` [Example 52, 4-{3-[3-(4-Hydroxyphenyl)-1,2,4-oxadiazol-5-yl]propanoyl}amino-2-chloro-1-butylpyrrole-3-carboxylic acid]: 6.11; for `CCn1cc(NC(=O)CCc2noc(-c3ccc(O)cc3)c2C(F)(F)F)c(C(=O)O)c1` [Example 53, 4-{3-[4-Trifluoromethyl-5-(4-hydroxyphenyl)isoxazol-3-yl]propanoyl}amino-1-ethylpyrrole-3-carboxylic acid]: 6.86. Compound `CCn1cc(NC(=O)C(C)Cc2cnc(-c3ccc(O)cc3)s2)c(C(=O)O)c1` (stereo not drawn) [Example 54, 4-{3-[2-(4-Hydroxyphenyl)thiazol-5-yl]-2-methylpropanoyl}amino-1-ethylpyrrole-3-carboxylic acid] showed a pIC50 of 6.64. Compound `CCn1cc(NC(=O)CCc2nnc(-c3ccc(O)cc3)s2)c(C(=O)O)c1` [Example 55, 4-{3-[5-(4-Hydroxyphenyl)[1,3,4]thiadiazole-2-yl]propanoyl}amino-1-ethylpyrrole-3-carboxylic acid] had a pIC50 of 8.00. On to `CCn1cc(NC(=O)CCc2cnn(-c3ccc(O)cc3)c2C(C)C)c(C(=O)O)c1` [Example 56, 4-{3-[1-(4-Hydroxyphenyl)-5-isopropylpyrazol-4-yl]propanoylamino}-1-ethylpyrrole-3-carboxylic acid], for which the pIC50 is 7.00. Turning to `CCn1cc(NC(=O)CCc2snc(-c3ccc(O)cc3)c2Cl)c(C(=O)O)c1` [Example 57, 4-{3-[4-Chloro-3-(4-hydroxyphenyl)isothiazol-5-yl]propanoylamino}-1-ethylpyrrole-3-carboxylic acid], the pIC50 was 6.79.

Compound `CCc1c(-c2ccc(O)cc2)nsc1CCC(=O)Nc1cn(CC)cc1C(=O)O` [Example 58, 4-{3-[4-Ethyl-3-(4-hydroxyphenyl)isothiazol-5-yl]propanoylamino}-1-ethylpyrrole-3-carboxylic acid] showed a pIC50 of 7.14. Take `CCCn1cc(NC(=O)CCc2cc(-c3ccc(O)cc3)no2)c(C(=O)O)c1` [Example 61, 4-{3-[3-(4-Hydroxyphenyl)isoxazol-5-yl]propanoyl}amino-1-propylpyrrole-3-carboxylic acid]: the pIC50 is 7.66.

`CCn1cc(NC(=O)C(F)Cc2cc(-c3ccc(O)cc3)no2)c(C(=O)O)c1` (stereo not drawn) [Example 62, 4-{3-[3-(4-Hydroxyphenyl)isoxazol-5-yl]-2-fluoropropanoyl}amino-1-ethylpyrrole-3-carboxylic acid] had a pIC50 of 7.55. `CCn1cc(NC(=O)C(F)(F)Cc2cc(-c3ccc(O)cc3)no2)c(C(=O)O)c1` [Example 63, 4-{3-[3-(4-Hydroxyphenyl)isoxazol-5-yl]-2,2-difluoropropanoyl}amino-1-ethylpyrrole-3-carboxylic acid] showed a pIC50 of 7.89.

As for `CCn1cc(NC(=O)C(F)(F)Cc2cc(-c3ccc(O)cc3)on2)c(C(=O)O)c1` [Example 64, 4-{3-[5-(4-Hydroxyphenyl)isoxazol-3-yl]-2,2-difluoropropanoyl}amino-1-ethylpyrrole-3-carboxylic acid], the pIC50 is 7.54.

Take `CCn1cc(NC(=O)CCc2onc(-c3ccc(O)cc3)c2C(F)F)c(C(=O)O)c1` [Example 65, 4-{3-[4-Difluoromethyl-3-(4-hydroxyphenyl)isoxazol-5-yl]propanoyl}amino-1-ethylpyrrole-3-carboxylic acid]: the pIC50 is 7.74. As to `CCc1c(-c2ccc(O)cn2)noc1CC(F)(F)C(=O)Nc1cn(CC)cc1C(=O)O` [Example 66, 4-{3-[4-Ethyl-3-(5-hydroxypyridin-2-yl)isoxazol-5-yl]-2,2-difluoropropanoyl}amino-1-ethylpyrrole-3-carboxylic acid], the pIC50 was 8.00.
